According to paper PMC7136958, “Targeting the pregnane X receptor using microbial metabolite mimicry” (EMBO Molecular Medicine, 2020):

Legend:
PPARγ = target: T1, PPARγ (Homo sapiens, UniProt P37231); test: PPARγ reporter assay in PAZ-PPARg cells; assay type: cell-based
T1 construct: endogenous in cells; host or cells: PAZ-PPARg
Procedure: volume of 20 µl in 384-well black plates, with concentrations of tested compounds in the range from 1 […]
dark, and then fluorescent signals were measured at 495 nm and 520 nm, with the excitation filter 340 nm, on Infinite F200 microplate reader (Tecan Group Ltd, Switzerland). Finally, the TR-FRET ratio was calculated by dividing the emission signal of 520 nm by that at 495 nm. All experiments were done in tetraplicates and as two independent experiments. Final EC50 values were obtained by processing the data with GraphPad Prism 6 using standard curve interpolation (sigmoidal, 4PL, variable slope).
Tr a nscriptional activity of PPARγ was studied in stably transfected reporter cell line PAZ-PPARg 20. Cells were seeded in 96 -well plates, stabilized for 24 h, and then incubated with tested compound. Dimethyl sulfoxide (DMSO; 0.1% v/v) and 15 -deoxy-δ1 2 , 1 4-prostaglandin J2 […]
(Schoeller Instruments, Prague, Czech Republic). The data are expressed as fold induction ± SD of luciferase activity over the control cells. Differences were tested using one-way ANOVA wit h Dunnett’s post hoc test, p < 0.05, was considered significant (*).

NF-κB [1] = test: NF-κB nuclear translocation (immunofluorescence) in human intestinal organoids; assay type: cell-based; conditions: 25 μM, with cytokines
Procedure: HIOs and Caco‐2 were exposed to a pro‐inflammatory cytokine cocktail (10 ng/ml IFN‐γ, 10 ng/ml TNF‐α, 50 ng/ml IL‐1β) for 2–24 h in combination with DMSO or FKK5 and FKK6 compounds (10 and 25 μm). Relative mRNA levels of IL‐8 and IL‐6 were determined using quantitative real‐time PCR, with normalization to GAPDH. RNA was isolated using an RNeasy Mini Kit (Qiagen) as per the manufacturer's instructions. On column DNase (Qiagen) was used to remove any contaminating DNA. Next, cDNA was formed using iScript cDNA Synthesis Kit (Bio‐Rad) and 100 ng RNA. qRT–PCR was performed with SsoAdvanced Universal SYBR Green Kit (Bio‐Rad). The following primers were used: IL‐8 Forward: […]; IL‐8 Reverse: […]; IL‐6 Forward: […]; IL‐6 Reverse: […]; GAPDH Forward: […]; GAPDH Reverse: […]. For immunofluorescent staining of NF‐ĸB translocation to the cell nucleus, HIOs and Caco‐2 cell monolayers were fixed in 4% formaldehyde (in 1 × PBS) overnight at 4°C. The formaldehyde was removed by washing with 1 × PBS, and an antigen retrieval step was performed by incubating in 10 mM sodium citrate buffer in a vegetable steamer for 20 min. The samples were then blocked with normal donkey serum (10% in PBS with 0.3% Triton X‐100) for 1 h. […]

NF-κB [2] = test: TNF-α-induced NF-κB reporter assay in LS180 cells with or without PXR co-transfection; assay type: cell-based, human; conditions: for TNF-α-induced NF-κB reporter activity: 0.1 to 25 μM, PXR-untransfected and PXR-transfected cells
Procedure: NF‐κB reporter assays were performed using LS180 cells. […] Thereafter, cells were lysed, and Nano luciferase activity was measured using a Tecan Infinite M200 Pro plate reader (Schoeller Instruments, Czech Republic).

[3] = test system: TLR4, CYP3A4, MDR1 mRNA in Caco-2 cells; test: RT-qPCR of TLR4, CYP3A4, MDR1 mRNA in PXR-transfected Caco-2 cells; assay type: cell-based, human; conditions: 10 μM; for CYP3A4 mRNA expression / MDR1 mRNA expression (Fold Change) / TLR4 mRNA expression: 24 h; for CYP3A4 Mean Fold expression / MDR1 Mean Fold expression / hTLR4 Mean Fold expression: DMSO = 1
Procedure: RT–qPCR was performed using Thermo Fisher PowerUp SYBR Green Master Mix (# A25742) and Thermo Fisher qPCR 7900HT. Each sample was repeated in quadruplicate and normalized to internal control, GAPDH. The entire experiment was repeated at least two separate times. The primer sequences are noted in Table 2.

[4] = test system: CYP1A1, CYP3A4, MDR1 mRNA in LS180 cells; test: qRT-PCR of CYP1A1, CYP3A4, MDR1 mRNA in LS180 cells with or without (mock) transfected PXR; conditions: for CYP1A1 mRNA induction: LS180 cells; for CYP1A1 mRNA fold to C / CYP3A4 mRNA fold to C / MDR-1 mRNA fold to C / MDR1 mRNA fold to C: normalised to GAPDH, fold to UT control
Procedure: Cells or primary human hepatocytes from four different donors (HEP200529, HEP220932, HEP200533, and HEP200538) were incubated for 24 h with test compounds; the vehicle was DMSO (0.1% v/v). Total RNA was isolated using TRI Reagent® (Molecular Research Center, Ohio, USA). cDNA was synthesized from 1,000 ng of total RNA using M‐MuLV Reverse Transcriptase (New England Biolabs, Ipswich, Massachusetts, USA) at 42°C for 60 min in the presence of random hexamers (New England Biolabs). Quantitative reverse transcriptase–polymerase chain reaction (qRT–PCR) was performed using LightCycler® 480 Probes Master on a LightCycler® 480 II apparatus (Roche Diagnostic Corporation).
The following protocol was used: An activation step at 95°C for 10 min was followed by 45 cycles of PCR (denaturation at 95°C for 10 s; annealing with elongation at 60°C for 30 s). The measurements were performed in triplicate. Gene expression was normalized per GAPDH as a housekeeping gene. […] Data are expressed as fold induction ± SD over the vehicle‐treated cells. The bar graph depicts one representative experiment of a series of experiments performed in three consecutive passages of cells. Differences were tested using one‐way ANOVA with Dunnett's post hoc test, and P < 0.05 was considered significant.

[5] = NFkB transfected LS180 cells, 8th pass, EXP1, 0,1 uM + TNFa 5 ng/ml
[6] = NFkB transfected LS180 cells, 8th pass, EXP1, 1 uM + TNFa 5 ng/ml
[7] = NFkB transfected LS180 cells, 8th pass, EXP1, 10 uM + TNFa 5 ng/ml
[8] = NFkB transfected LS180 cells, 8th pass, EXP1, 25 uM + TNFa 5 ng/ml
[9] = NFkB transfected LS180 cells, 13th pass, EXP2, 0,1 uM + TNFa 5 ng/ml
[10] = NFkB transfected LS180 cells, 13th pass, EXP2, 1 uM + TNFa 5 ng/ml
[11] = NFkB transfected LS180 cells, 13th pass, EXP2, 10 uM + TNFa 5 ng/ml
[12] = NFkB transfected LS180 cells, 13th pass, EXP2, 25 uM + TNFa 5 ng/ml
[13] = NFkB+PXR transfected LS180 cells, 8th pass, EXP1, 0,1 uM + TNFa 5 ng/ml
[14] = NFkB+PXR transfected LS180 cells, 8th pass, EXP1, 1 uM + TNFa 5 ng/ml
[15] = NFkB+PXR transfected LS180 cells, 8th pass, EXP1, 10 uM + TNFa 5 ng/ml
[16] = NFkB+PXR transfected LS180 cells, 8th pass, EXP1, 25 uM + TNFa 5 ng/ml
[17] = NFkB+PXR transfected LS180 cells, 13th pass, EXP2, 0,1 uM + TNFa 5 ng/ml
[18] = NFkB+PXR transfected LS180 cells, 13th pass, EXP2, 1 uM + TNFa 5 ng/ml
[19] = NFkB+PXR transfected LS180 cells, 13th pass, EXP2, 10 uM + TNFa 5 ng/ml
[20] = NFkB+PXR transfected LS180 cells, 13th pass, EXP2, 25 uM + TNFa 5 ng/ml

T1 sequence (P37231 whole entry): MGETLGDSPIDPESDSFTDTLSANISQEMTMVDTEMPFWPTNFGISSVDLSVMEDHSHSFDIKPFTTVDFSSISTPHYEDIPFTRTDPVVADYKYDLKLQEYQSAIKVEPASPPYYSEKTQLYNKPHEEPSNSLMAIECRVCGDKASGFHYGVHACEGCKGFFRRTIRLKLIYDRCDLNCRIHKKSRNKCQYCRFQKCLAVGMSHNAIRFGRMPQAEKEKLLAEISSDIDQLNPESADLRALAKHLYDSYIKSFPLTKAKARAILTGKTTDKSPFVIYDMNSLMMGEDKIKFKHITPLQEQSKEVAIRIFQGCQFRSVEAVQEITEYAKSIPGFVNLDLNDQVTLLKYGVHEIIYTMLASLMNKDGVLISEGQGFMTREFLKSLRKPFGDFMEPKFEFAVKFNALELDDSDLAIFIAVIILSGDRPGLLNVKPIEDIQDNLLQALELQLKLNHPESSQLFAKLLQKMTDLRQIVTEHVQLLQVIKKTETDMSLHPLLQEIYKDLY

SMILES: C#CCC(O)(c1ccncc1)c1cc2ccccc2n1S(=O)(=O)c1ccccc1 (centres unmarked) [FKK6]
- PPARγ ligand agonist activity (PPARγ): did not observe any significant ligand agonist activity
- NF-κB localisation (NF-κB [1]): increased cytoplasmic
- TNF-α-induced NF-κB reporter activity (NF-κB [2]): significantly reduced
- NFkB reporter luminescence, aver (NF-κB [2]; [5]): 151491.7
- NFkB reporter, % max (NF-κB [2]; [5]): 100.0%
- NFkB reporter luminescence, aver (NF-κB [2]; [6]): 188054.3
- NFkB reporter, % max (NF-κB [2]; [6]): 124.1%
- NFkB reporter luminescence, aver (NF-κB [2]; [7]): 206680.7
- NFkB reporter, % max (NF-κB [2]; [7]): 136.4%
- NFkB reporter luminescence, aver (NF-κB [2]; [8]): 153657.3
- NFkB reporter, % max (NF-κB [2]; [8]): 101.4%
- NFkB reporter luminescence, aver (NF-κB [2]; [9]): 110498.5
- NFkB reporter, % max (NF-κB [2]; [9]): 100.0%
- NFkB reporter luminescence, aver (NF-κB [2]; [10]): 114693.5
- NFkB reporter, % max (NF-κB [2]; [10]): 103.8%
- NFkB reporter luminescence, aver (NF-κB [2]; [11]): 113662.5
- NFkB reporter, % max (NF-κB [2]; [11]): 102.9%
- NFkB reporter luminescence, aver (NF-κB [2]; [12]): 88975.5
- NFkB reporter, % max (NF-κB [2]; [12]): 80.5%
- NFkB reporter luminescence, aver (NF-κB [2]; [13]): 128584.0
- NFkB reporter, % max (NF-κB [2]; [13]): 100.0%
- NFkB reporter luminescence, aver (NF-κB [2]; [14]): 112418.0
- NFkB reporter, % max (NF-κB [2]; [14]): 87.4%
- NFkB reporter luminescence, aver (NF-κB [2]; [15]): 100484.8
- NFkB reporter, % max (NF-κB [2]; [15]): 78.1%
- NFkB reporter luminescence, aver (NF-κB [2]; [16]): 94342.8
- NFkB reporter, % max (NF-κB [2]; [16]): 73.4%
- NFkB reporter luminescence, aver (NF-κB [2]; [17]): 50028.3
- NFkB reporter, % max (NF-κB [2]; [17]): 100.0%
- NFkB reporter luminescence, aver (NF-κB [2]; [18]): 38521.5
- NFkB reporter, % max (NF-κB [2]; [18]): 77.0%
- NFkB reporter luminescence, aver (NF-κB [2]; [19]): 24979.3
- NFkB reporter, % max (NF-κB [2]; [19]): 49.9%
- NFkB reporter luminescence, aver (NF-κB [2]; [20]): 26644.5
- NFkB reporter, % max (NF-κB [2]; [20]): 53.3%
- CYP3A4 mRNA expression [3]: 3.29 fold
- MDR1 mRNA expression (Fold Change) [3]: 6.45 fold
- TLR4 mRNA expression [3]: 0.49 fold
- CYP3A4 Mean Fold expression [3]: 3.29
- MDR1 Mean Fold expression [3]: 6.45
- hTLR4 Mean Fold expression [3]: 0.49
- CYP1A1 mRNA induction [4]: did not induce
- CYP3A4 mRNA induction ([4]; PXR-transfected LS180 cells): induced
- MDR1 mRNA induction ([4]; PXR-transfected LS180 cells): induced
- CYP1A1 mRNA fold to C ([4]; PXR-transfected LS180 cells): 2.02
- CYP3A4 mRNA fold to C ([4]; PXR-transfected LS180 cells): 18.02
- MDR-1 mRNA fold to C ([4]; PXR-transfected LS180 cells): 10.37
- CYP1A1 mRNA fold to C ([4]; mock-transfected LS180 cells): 4.61
- CYP3A4 mRNA fold to C ([4]; mock-transfected LS180 cells): 1.10
- MDR1 mRNA fold to C ([4]; mock-transfected LS180 cells): 5.17

SMILES: O=C(c1ccncc1)c1cc2ccccc2n1S(=O)(=O)c1ccccc1 [FKK5, (1-(phenylsulfonyl)-1H-indol-2-yl)(pyridin-4-yl)methanone]
- PPARγ ligand agonist activity (PPARγ): did not observe any significant ligand agonist activity
- NF-κB localisation (NF-κB [1]): increased cytoplasmic
- TNF-α-induced NF-κB reporter activity (NF-κB [2]): significantly reduced
- NFkB reporter luminescence, aver (NF-κB [2]; [5]): 154648.3
- NFkB reporter, % max (NF-κB [2]; [5]): 100.0%
- NFkB reporter luminescence, aver (NF-κB [2]; [6]): 174112.0
- NFkB reporter, % max (NF-κB [2]; [6]): 112.6%
- NFkB reporter luminescence, aver (NF-κB [2]; [7]): 177548.0
- NFkB reporter, % max (NF-κB [2]; [7]): 114.8%
- NFkB reporter luminescence, aver (NF-κB [2]; [8]): 128563.8
- NFkB reporter, % max (NF-κB [2]; [8]): 83.1%
- NFkB reporter luminescence, aver (NF-κB [2]; [9]): 96416.5
- NFkB reporter, % max (NF-κB [2]; [9]): 100.0%
- NFkB reporter luminescence, aver (NF-κB [2]; [10]): 100061.8
- NFkB reporter, % max (NF-κB [2]; [10]): 103.8%
- NFkB reporter luminescence, aver (NF-κB [2]; [11]): 94755.5
- NFkB reporter, % max (NF-κB [2]; [11]): 98.3%
- NFkB reporter luminescence, aver (NF-κB [2]; [12]): 73575.7
- NFkB reporter, % max (NF-κB [2]; [12]): 76.3%
- NFkB reporter luminescence, aver (NF-κB [2]; [13]): 119827.8
- NFkB reporter, % max (NF-κB [2]; [13]): 100.0%
- NFkB reporter luminescence, aver (NF-κB [2]; [14]): 119180.5
- NFkB reporter, % max (NF-κB [2]; [14]): 99.5%
- NFkB reporter luminescence, aver (NF-κB [2]; [15]): 105570.7
- NFkB reporter, % max (NF-κB [2]; [15]): 88.1%
- NFkB reporter luminescence, aver (NF-κB [2]; [16]): 87454.8
- NFkB reporter, % max (NF-κB [2]; [16]): 73.0%
- NFkB reporter luminescence, aver (NF-κB [2]; [17]): 54048.0
- NFkB reporter, % max (NF-κB [2]; [17]): 100.0%
- NFkB reporter luminescence, aver (NF-κB [2]; [18]): 44601.5
- NFkB reporter, % max (NF-κB [2]; [18]): 82.5%
- NFkB reporter luminescence, aver (NF-κB [2]; [19]): 31230.0
- NFkB reporter, % max (NF-κB [2]; [19]): 57.8%
- NFkB reporter luminescence, aver (NF-κB [2]; [20]): 30160.0
- NFkB reporter, % max (NF-κB [2]; [20]): 55.8%
- CYP3A4 mRNA expression [3]: 3.7 fold
- MDR1 mRNA expression (Fold Change) [3]: 5.12 fold
- TLR4 mRNA expression [3]: 0.39 fold
- CYP3A4 Mean Fold expression [3]: 3.7
- MDR1 Mean Fold expression [3]: 5.12
- hTLR4 Mean Fold expression [3]: 0.39
- CYP1A1 mRNA induction [4]: did not induce
- CYP1A1 mRNA fold to C ([4]; PXR-transfected LS180 cells): 1.86
- CYP3A4 mRNA fold to C ([4]; PXR-transfected LS180 cells): 3.69
- MDR-1 mRNA fold to C ([4]; PXR-transfected LS180 cells): 4.10
- CYP1A1 mRNA fold to C ([4]; mock-transfected LS180 cells): 8.19
- CYP3A4 mRNA fold to C ([4]; mock-transfected LS180 cells): 0.94
- MDR1 mRNA fold to C ([4]; mock-transfected LS180 cells): 3.80
